Measurements reported in patent publication US4254126A, “4-Carbethoxy-carbonilamino-pyrimidines and a process for their preparation” (POLI Industria Chimica S.p.A., priority 1978, dated 1981).
Like-named read-outs stand apart in the source and are kept apart here.

Tests used:
Assay type in all cases: in vivo
[1] = test system: Passive Cutaneous Anaphylaxis; assay: Passive Cutaneous Anaphylaxis (PCA test) in the Rat; details: administered 5 minutes before the antigen
Description: The compounds of general formula (I) are all endowed with an extremely low toxicity (the DL50 per os in rats is higher than 1600 mg/kg for all the compounds) and they are rapidly absorbed through oral administration, so that the DE50 (the dosage capable of reducing the effects of the noxious stimulus by 50%) in the Passive Cutaneous Anaphylaxis Test in the rat is almost the same whether administered orally or intraperitoneally.
(a) Production of antiovalbumin reaginic serum. Male rats (COBS-CD) weighing 300 to 400 g, are immunized by intramuscular injection of 0.1 ml/kg of ovalbumin solution obtained by dissolving 20 mg of ovalbumin (Sigma) in 1 ml of saline and by intraperitoneal injection of 1 ml of pertussis vaccine (Abetin Sclavo). After eleven days the animals are killed, the blood collected and after one night at 4° C., centrifuged and sera stored at -20° C.
(b) PCA test--Male rats (COBS-CD) weighing 125 to 135 g were sensitized by two intradermal injections on the shaved back of 0.1 ml of anti-ovalbumin serum. After 24 hours, 25 mg/kg of ovalbumin and 25 mg/kg of Evans blue are injected intravenously and thirty minutes later the animals are killed, the skin of the back removed and the major and minor diameters of the two spots on the reflected skin are measured.

gastric acid secretion = assay: inhibition of gastric acid secretion in pylorus ligated rats (Shay rats); details: Rattus norvegicus, po, os, 50% inhibition of gastric acid secretion, read-out: Antisecretory and antiulcer activity ED50 Shay
From the text: (§1) The pharmacological study of the antiulcer activity of the compounds, in accordance with the present invention, has been carried out determining the dose which inhibits the gastric acid secretion by 50% (ED50) in pylorus ligated rats (Shay rats) according to the method described by Shay et al., in Gastroenterology 26, 906, 1954, the dose which reduces by 50% (ED50) the indomethacin-induced ulcers according to the procedure described by Leet et al., in Arch. Int. Pharmacodyn. 191, 370, 1971 and the dose which reduces by 50% (ED50) the ulcers by cold and restraint according to the procedure described by Senay and Levine in Proc. Soc. Exp. Biol. Med. 124, 1221, 1967.

[2] = test system: ulcers by cold and restraint; assay: ulcers by cold and restraint; details: Rattus norvegicus, po; os, 50% reduction of ulcers by cold and restraint; read-out: Antisecretory and antiulcer activity ED50 Restraint
From the text: as §1

[3] = test system: indomethacin-induced ulcers; assay: indomethacin-induced ulcers; details: Rattus norvegicus, po; os, 50% reduction of indomethacin-induced ulcers; read-out: Antisecretory and antiulcer activity ED50 Indometacin
From the text: as §1

[4] = ip, intraperitoneal, read-out: PCA Test ED50 l.p.
[5] = po, os, read-out: PCA Test ED50 os

SMILES	ED50 [1, 4] [mg/kg]	ED50 [1, 5] [mg/kg]	ED50 (gastric acid secretion) [mg/kg]	ED50 [2] [mg/kg]	ED50 [3] [mg/kg]
CCOC(=O)C(=O)Nc1cc(OC)ncn1 [Symbol 907]	32	100	3.2	12	4.6
CCOC(=O)C(=O)Nc1cc(OC)nc(C)n1 [Symbol 913]	< 5	> 100	3.6	15	4.2
CCOC(=O)C(=O)Nc1cc(OC)nc(-c2ccccc2)n1 [Symbol 921]	30	100	6.2	25	15
CCOC(=O)C(=O)Nc1cc(OCCOC)nc(C)n1 [Symbol 923]	25	70	4.1	9	3.2
CCOC(=O)C(=O)Nc1cc(OCCOCc2ccccc2)nc(C)n1 [Symbol 927]	23	80	6.4	16	14.8
CCOC(=O)C(=O)Nc1cc(SC)nc(C)n1 [Symbol 928]	30	> 100	7.2	14	2
CCOC(=O)C(=O)Nc1cc(SCCOC(=O)C(=O)OCC)nc(C)n1 [Symbol 929]	2.4	18	8.4	18	22.2
CCOC(=O)C(=O)Nc1cc(Cl)ncn1 [Symbol 931]	24	> 100	6.3	22	7.2
CCOC(=O)C(=O)Nc1cc(OCCOC)ncn1 [Symbol 932, 4-carbethoxycarbonilamino-6-(β-methoxyethoxy)-pyrimidine]	10	26	2.1	7	3.2
CCOC(=O)C(=O)Nc1ccncn1 [Symbol 933]	32	96	3.8	10	4.7
CCOC(=O)C(=O)Nc1cc(OC)nc(OC)n1 [Symbol 934]	25	> 100	4.1	11	5.6
CCOC(=O)C(=O)Nc1cc(SCCOC(=O)C(=O)OCC)ncn1 [Symbol 940]	12	43	5.2	8	3.6
CCOC(=O)CCCSc1cc(NC(=O)C(=O)OCC)ncn1 [Symbol 953]	3.2	26	7.2	12	8.8
CCOC(=O)C(=O)Nc1cc(SCCOC)nc(C)n1 [Symbol 955]	6.9	25	2.3	7	2.8
CCOC(=O)C(=O)Nc1cc(SCCOC)ncn1 [Symbol 957]	5.8	23	6.2	14	9.4
CCOC(=O)C(=O)Nc1cc(OCCOCCOC)ncn1 [Symbol 963]	6.2	24	6.1	16	7.3
CCOC(=O)C(=O)Nc1cc(SCCOCCOC)ncn1 [Symbol 965]	7.3	20	8.3	17	6.1
